Data: PMC11162475, “Rule-based omics mining reveals antimicrobial macrocyclic peptides against drug-resistant clinical isolates” (Nature Communications, 2024)
≈ marks a conversion by molar mass, not a printed value.

Tests used:
[1] = test system: S. aureus ATCC 25923; assay: Time-dependent killing assay; format: cell-based, Staphylococcus aureus; conditions: for log(CFU/mL) / CFU/mL: time-killing assay
Method: Time-dependent killing assay
An overnight culture of S. aureus ATCC 25923 cells was diluted at 1:10,000 in MHB medium and incubated at 37 ℃, 200 rpm for 2 hours to reach the early exponential.
Then, massatide A or vancomycin was added to the culture at the concentration of 10×MIC. Bacteria were still cultivated at 37 ℃, 200 rpm. Culture with no antibiotics was used as a negative control. 10 μL aliquots were removed at intervals, centrifuged, and resuspended in 1 ml PBS. Serially diluted (10-fold) suspensions were plated on MHB agar and incubated at 37 ℃ overnight for counting of colony-forming units.
Experiments were performed in triplicate. […]

[2] = test system: Escherichia coli DH5α; format: cell-based; conditions: DH5α, 20 h
Method: (§1) For MIC determination, Staphylococcus aureus ATCC25923, Bacillus subtilis 168, Micrococcus luteus DSM1790, Enterococcus faecalis OG1RF, Enterococcus faecium MCC2763, Escherichia coli DH5α and Pseudomonas aeruginosa PAO1 were used as indicator strains. Nisin and vancomycin were used as positive controls. A dilution series of massatide A, massatide B, vancomycin (16, 8, 4, 2, 1, 0.5, 0.25, 0.125, 0.0625, 0.0313 μg/mL) and sistertide A1, kebanetide A1, kebanetide A2, nisin (64, 32, 16, 8, 4, 2, 1, 0.5, 0.25, 0.125 μg/mL) were prepared in 96-well plate from 1–10th column. The indicator strains were added to the compound-containing well. The indicator strain culture with no antibiotics was prepared in the 11th column. The 12th column was filled with 200 μL empty MHB medium. The 96-well plate was incubated at 37 °C for 20 h (30 °C for M. luteus and B. subtilis). The OD600 was detected on MULTISKAN Sky (Thermo Scientific) and MIC values were determined. The MIC values of clinical isolates were determined by Sichuan Primed Shines Bio-tech Co., Ltd. (China) following similar protocol. Levofloxacin was used as a positive control.

[3] = test system: Pseudomonas aeruginosa PAO1; format: cell-based; conditions: PAO1, 20 h
Method: as §1

[4] = test system: tested gram-positive pathogens, including vancomycin intermediate-resistant strains; format: cell-based; conditions: 20 h
Method: as §1

[5] = test system: Micrococcus luteus DSM1790; assay: Kirby-Bauer assay, zone of inhibition (agar well); format: cell-based; conditions: M. luteus DSM1790; 10 μL DMSO stock (3.2 or 1.6 mg/mL) in well of soft LB agar, 30 °C, 20 h
Method: (§2) The stock solution of massatide A (1) and B (1a) 3.2 mg/mL were prepared in DMSO. 40 μL overnight culture of Micrococcus luteus DSM1790 was added to 20 mL soft Luria-Bertani agar (1% agar), and then poured into a plate. 10 μL tip was used to make two wells on the plate. 10 μL massatide A (1) or B (1a) solution was added in one of the wells, while in the other well, 10 μL DMSO was added as a negative control. The plates were incubated at 30 °C for 20 h to observe the zone of inhibition. Staphylococcus aureus ATCC25923 was also used to observe the inhibition zone using a similar method. The only difference is incubating at 37 °C. Stock solutions of sistertide A1, kebanetide A1 and A2 were 3.2 mg/mL, 1.6 mg/mL and 1.6 mg/mL, respectively. The method to observe the activity of these compounds individually was the same as that of massatide.

[6] = test system: Staphylococcus aureus ATCC25923; assay: Kirby-Bauer assay, zone of inhibition (agar well); format: cell-based; conditions: S. aureus ATCC25923; 10 μL of 3.2 mg/mL DMSO stock in well of soft LB agar, 37 °C, 20 h
Method: as §2

[7] = 300 μl of water added to 0.9 mg solid; visual, not quantitative
[8] = test system: S. aureus ATCC 25923
Method: was used as a negative control.
Experiments were performed in triplicate.
The experiment was performed in triplicate.

[9] = test system: Enterococcus faecalis 19-1; assay: microbe, parasite or virus in culture; format: cell-based; conditions: 19-1, 20 h
Method: as §1

[10] = test system: ICR mice; assay: Mouse acute toxicity test; format: in vivo
Method: Massatide A was dissolved in saline to the required concentration for the experiments. Six-week-old specific pathogen-free male ICR mice weighing 18–20 g were randomly divided into 4 groups (4 per group) and administered in a single intraperitoneal injection. Group 1 animals received 0.9% saline only, while groups 2–4 were given massatide A at 10, 30, and 50 mg/kg, respectively. The animals were continuously observed for general behavioral changes for 5 days and survival rate was recorded.

C/C=C1\NC(=O)C(N(C)C)C(C)SC[C@@H](C(=O)N[C@H](CC)C(=O)N[C@H](C(=O)N[C@@H](C)C(=O)N[C@H](C)C(=O)N[C@@H](Cc2ccccc2)C(=O)N[C@@H](C)C(=O)NC2C(=O)NCC(=O)N[C@@H](Cc3ccc(O)cc3)C(=O)N[C@@H](Cc3ccccc3)C(=O)N[C@H](C)C(=O)N/C=C\SC2C)C(C)C)NC(=O)[C@@H]2CCCN2C(=O)[C@H](C(C)C)NC1=O (stereo partly drawn) [Massatide A (1), massatide A]
time-dependent killing, mode of killing ([1]; S. aureus, early exponential phase, 10×MIC, 37 °C, c.f.u. counting, triplicate): bactericidal
log(CFU/mL) ([1]; time 0 h, log of mean of 3 replicates): 6.553 log(CFU/mL)
CFU/mL ([1]; time 0 h, mean of 3 replicates): 3576667 CFU/mL
CFU/mL ([1]; time 0 h, replicate 1): 2840000 CFU/mL
log(CFU/mL) ([1]; time 0 h, replicate 1): 6.453 log(CFU/mL)
CFU/mL ([1]; time 0 h, replicate 2): 4020000 CFU/mL
log(CFU/mL) ([1]; time 0 h, replicate 2): 6.604 log(CFU/mL)
CFU/mL ([1]; time 0 h, replicate 3): 3870000 CFU/mL
log(CFU/mL) ([1]; time 0 h, replicate 3): 6.588 log(CFU/mL)
log(CFU/mL) ([1]; time 1 h, log of mean of 3 replicates): 4.699 log(CFU/mL)
CFU/mL ([1]; time 1 h, mean of 3 replicates): 50000 CFU/mL
CFU/mL ([1]; time 1 h, replicate 1): 70000 CFU/mL
log(CFU/mL) ([1]; time 1 h, replicate 1): 4.8451 log(CFU/mL)
CFU/mL ([1]; time 1 h, replicate 2): 50000 CFU/mL
log(CFU/mL) ([1]; time 1 h, replicate 2): 4.699 log(CFU/mL)
CFU/mL ([1]; time 1 h, replicate 3): 30000 CFU/mL
log(CFU/mL) ([1]; time 1 h, replicate 3): 4.477 log(CFU/mL)
log(CFU/mL) ([1]; time 3 h, log of mean of 3 replicates): 4.176 log(CFU/mL)
CFU/mL ([1]; time 3 h, mean of 3 replicates): 15000 CFU/mL
CFU/mL ([1]; time 3 h, replicate 1): 10000 CFU/mL
log(CFU/mL) ([1]; time 3 h, replicate 1): 4 log(CFU/mL)
CFU/mL ([1]; time 3 h, replicate 2): 20000 CFU/mL
log(CFU/mL) ([1]; time 3 h, replicate 2): 4.301 log(CFU/mL)
CFU/mL ([1]; time 3 h, replicate 3): 15000 CFU/mL
log(CFU/mL) ([1]; time 3 h, replicate 3): 4.176 log(CFU/mL)
log(CFU/mL) ([1]; time 7 h, log of mean of 3 replicates): 3.921 log(CFU/mL)
CFU/mL ([1]; time 7 h, mean of 3 replicates): 8333.33 CFU/mL
CFU/mL ([1]; time 7 h, replicate 1): 5000 CFU/mL
log(CFU/mL) ([1]; time 7 h, replicate 1): 3.699 log(CFU/mL)
CFU/mL ([1]; time 7 h, replicate 2): 10000 CFU/mL
log(CFU/mL) ([1]; time 7 h, replicate 2): 4 log(CFU/mL)
CFU/mL ([1]; time 7 h, replicate 3): 10000 CFU/mL
log(CFU/mL) ([1]; time 7 h, replicate 3): 4 log(CFU/mL)
log(CFU/mL) ([1]; time 26 h, log of mean of 3 replicates): 2.049 log(CFU/mL)
CFU/mL ([1]; time 26 h, mean of 3 replicates): 112 CFU/mL
CFU/mL ([1]; time 26 h, replicate 1): 70 CFU/mL
log(CFU/mL) ([1]; time 26 h, replicate 1): 1.8451 log(CFU/mL)
CFU/mL ([1]; time 26 h, replicate 2): 120 CFU/mL
log(CFU/mL) ([1]; time 26 h, replicate 2): 2.079 log(CFU/mL)
CFU/mL ([1]; time 26 h, replicate 3): 146 CFU/mL
log(CFU/mL) ([1]; time 26 h, replicate 3): 2.164 log(CFU/mL)
MIC [2]: >128 µg/mL
MIC [3]: >128 µg/mL
MIC (potency) against tested gram-positive pathogens [4]: below 4 μg/mL
inhibitory activity (zone of inhibition) [5]: strong inhibitory activity
inhibitory activity (zone of inhibition) [6]: strong inhibitory activity
water solubility (observation) [7]: not fully dissolved
MIC to S. aureus after serial passaging ([8]; 25 days of serial passaging in subinhibitory concentrations, triplicate): 4 µg/mL (≈ 2.45 µM)
change in MIC during serial passaging ([8]; subsequent 19 days after day 6): No significant change in MIC
MIC [9]: 4 µg/mL (≈ 2.45 µM)
number of new dead mouse ([10]; 10 mg/kg i.p., day 1, 4 mice per group): 0
number of new dead mouse ([10]; 10 mg/kg i.p., day 2, 4 mice per group): 0
number of new dead mouse ([10]; 10 mg/kg i.p., day 3, 4 mice per group): 0
number of new dead mouse ([10]; 10 mg/kg i.p., day 5, 4 mice per group): 0
number of new dead mouse ([10]; 30 mg/kg i.p., day 1, 4 mice per group): 0
number of new dead mouse ([10]; 30 mg/kg i.p., day 2, 4 mice per group): 0
number of new dead mouse ([10]; 30 mg/kg i.p., day 3, 4 mice per group): 0
number of new dead mouse ([10]; 30 mg/kg i.p., day 5, 4 mice per group): 0
number of new dead mouse ([10]; 50 mg/kg i.p., day 1, 4 mice per group): 0
number of new dead mouse ([10]; 50 mg/kg i.p., day 2, 4 mice per group): 0
number of new dead mouse ([10]; 50 mg/kg i.p., day 3, 4 mice per group): 0
number of new dead mouse ([10]; 50 mg/kg i.p., day 5, 4 mice per group): 0
survival / signs of acute toxicity ([10]; male ICR mice, single intraperitoneal injection, 10-50 mg/kg, 5 days, 4 per group): all treated mice survived without any signs of acute toxicity
